ChEMBL document CHEMBL1909046, “DrugMatrix in vitro pharmacology data”

How the values were obtained:
[1] = target: T1, Type-2 angiotensin II receptor (Homo sapiens, UniProt P50052); type: cell-based; settings: cho-k1; also: in other assays of this panel Not Active means under 50% inhibition at 10 µM
T1 sequence (P50052 whole entry): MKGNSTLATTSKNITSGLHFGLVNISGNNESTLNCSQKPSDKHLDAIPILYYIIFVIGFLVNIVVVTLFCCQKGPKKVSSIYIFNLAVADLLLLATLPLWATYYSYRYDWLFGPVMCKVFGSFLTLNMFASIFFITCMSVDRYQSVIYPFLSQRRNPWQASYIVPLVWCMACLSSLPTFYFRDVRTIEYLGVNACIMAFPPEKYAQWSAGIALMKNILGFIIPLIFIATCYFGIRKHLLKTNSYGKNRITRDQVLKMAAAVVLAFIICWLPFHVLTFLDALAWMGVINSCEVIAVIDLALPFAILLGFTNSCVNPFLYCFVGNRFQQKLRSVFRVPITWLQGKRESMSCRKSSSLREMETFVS

[2] = target: T2, D(4) dopamine receptor (Homo sapiens, UniProt P21917); test: DRUGMATRIX: Dopamine D4.2 radioligand binding (ligand: [3H] Spiperone); type: cell membranes, CHO-K1, Membrane; settings: cho-k1; Not Active = under 50% inhibition at 10 µM
T2 sequence (P21917 whole entry): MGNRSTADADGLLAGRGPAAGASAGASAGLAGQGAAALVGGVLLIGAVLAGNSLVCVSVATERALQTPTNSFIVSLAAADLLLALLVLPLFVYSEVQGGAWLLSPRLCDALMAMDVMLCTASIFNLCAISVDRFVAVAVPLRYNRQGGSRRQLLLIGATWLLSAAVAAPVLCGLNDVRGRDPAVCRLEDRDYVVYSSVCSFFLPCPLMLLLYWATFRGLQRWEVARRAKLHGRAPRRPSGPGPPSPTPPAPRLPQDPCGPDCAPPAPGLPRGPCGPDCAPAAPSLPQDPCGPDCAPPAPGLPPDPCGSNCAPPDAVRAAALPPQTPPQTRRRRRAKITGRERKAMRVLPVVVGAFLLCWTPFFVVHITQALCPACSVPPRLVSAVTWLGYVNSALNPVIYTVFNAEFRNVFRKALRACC

[3] = DRUGMATRIX: GABAA, Flunitrazepam, Central radioligand binding (ligand: [3H] Flunitrazepam); type: cell membranes, Rattus norvegicus, Wistar, Brain, Membrane; settings: Not Active = under 50% inhibition at 10 µM
[4] = target: T3, Leukotriene C4 synthase (Cavia porcellus, UniProt A6XA80); test: biochemical; type: tissue-based, Lung;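 also: enzyme inhibition assay of leukotriene C4 synthase, using LTA4 as the substrate; in other assays of this panel Not Active means under 50% inhibition at 10 µM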
T3 sequence (A6XA80 whole entry): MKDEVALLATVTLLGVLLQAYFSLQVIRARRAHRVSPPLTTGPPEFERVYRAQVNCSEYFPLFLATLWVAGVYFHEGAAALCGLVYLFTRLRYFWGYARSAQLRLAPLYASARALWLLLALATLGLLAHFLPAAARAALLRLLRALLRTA

[5] = target: T4, Cysteinyl leukotriene receptor 1 (Homo sapiens, UniProt Q9Y271); type: cell membranes, CHO-K1, Membrane; settings: cho-k1; also: in other assays of this panel Not Active means under 50% inhibition at 10 µM
T4 sequence (Q9Y271 whole entry): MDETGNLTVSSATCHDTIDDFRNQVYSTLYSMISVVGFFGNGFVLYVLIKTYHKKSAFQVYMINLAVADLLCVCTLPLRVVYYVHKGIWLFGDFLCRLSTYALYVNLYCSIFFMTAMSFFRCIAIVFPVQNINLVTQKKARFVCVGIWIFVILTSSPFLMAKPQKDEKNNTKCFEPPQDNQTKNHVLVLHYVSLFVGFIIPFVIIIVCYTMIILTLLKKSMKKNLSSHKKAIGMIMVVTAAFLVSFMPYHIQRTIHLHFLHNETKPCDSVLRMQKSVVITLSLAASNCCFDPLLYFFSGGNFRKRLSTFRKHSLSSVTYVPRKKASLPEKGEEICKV

[6] = target: T5, Amine oxidase [flavin-containing] A (Homo sapiens, UniProt P21397); test: DRUGMATRIX: Monoamine Oxidase MAO-A enzyme inhibition (substrate: Kynuramine); set-up: species or system BTI-TN-5B1-4; settings: bti-tn-5b1-4; Not Active = under 50% inhibition at 10 µM
T5 sequence (P21397 whole entry): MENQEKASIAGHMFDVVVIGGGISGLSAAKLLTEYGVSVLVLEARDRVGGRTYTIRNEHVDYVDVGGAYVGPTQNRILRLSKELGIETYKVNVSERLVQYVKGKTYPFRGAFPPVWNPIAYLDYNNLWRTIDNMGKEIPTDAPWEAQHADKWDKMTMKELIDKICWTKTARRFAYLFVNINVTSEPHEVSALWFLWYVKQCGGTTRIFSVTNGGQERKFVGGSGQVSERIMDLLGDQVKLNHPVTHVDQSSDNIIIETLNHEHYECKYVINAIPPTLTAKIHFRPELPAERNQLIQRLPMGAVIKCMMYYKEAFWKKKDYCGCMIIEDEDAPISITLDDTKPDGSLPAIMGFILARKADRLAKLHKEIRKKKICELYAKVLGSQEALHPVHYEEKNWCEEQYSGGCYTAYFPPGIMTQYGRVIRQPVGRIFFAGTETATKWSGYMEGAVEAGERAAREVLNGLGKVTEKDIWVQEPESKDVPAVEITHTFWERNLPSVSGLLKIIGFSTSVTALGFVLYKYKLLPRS

[7] = target: Adenosine receptor A2a (Homo sapiens, UniProt P29274); test: DRUGMATRIX: Adenosine A2A radioligand binding (ligand: […]); type: cell membranes, HEK293, Membrane; settings: hek293; Not Active = under 50% inhibition at 10 µM
Adenosine receptor A2a, sequence (P29274 whole entry): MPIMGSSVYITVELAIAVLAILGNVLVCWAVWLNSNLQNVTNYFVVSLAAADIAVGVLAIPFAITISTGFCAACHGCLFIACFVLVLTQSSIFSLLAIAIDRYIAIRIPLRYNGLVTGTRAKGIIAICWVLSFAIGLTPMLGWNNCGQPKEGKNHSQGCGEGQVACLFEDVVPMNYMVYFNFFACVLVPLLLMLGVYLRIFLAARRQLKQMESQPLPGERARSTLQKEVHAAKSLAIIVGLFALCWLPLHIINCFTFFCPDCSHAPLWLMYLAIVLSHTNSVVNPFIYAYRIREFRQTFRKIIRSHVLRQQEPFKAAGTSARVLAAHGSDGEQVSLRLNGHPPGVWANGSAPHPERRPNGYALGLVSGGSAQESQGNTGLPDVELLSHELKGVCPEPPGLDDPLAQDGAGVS

Cc1cnc(NC(=O)C2=C(O)c3ccccc3S(=O)(=O)N2C)s1 [MELOXICAM]
Not Active: IC50 [1] | IC50 [2] | IC50 [3] | Ki [3] | IC50 [4] | IC50 [5] | IC50 [6] | IC50 [7]

CC(O)C(=O)O (configuration not stated) [LACTIC ACID]
Not Active: IC50 [1] | IC50 [2] | IC50 [3] | Ki [3] | IC50 [4] | IC50 [5] | IC50 [6] | IC50 [7]

C1CCN2C[C@@H]3C[C@@H](CN4CCCC[C@@H]34)[C@H]2C1 [SPARTEINE]
Not Active: IC50 [1] | IC50 [2] | IC50 [3] | Ki [3] | IC50 [4] | IC50 [5] | IC50 [6] | IC50 [7]

CC(N)C12CC3CC(CC(C3)C1)C2 (configuration not stated) [RIMANTADINE]
Not Active: IC50 [1] | IC50 [2] | IC50 [3] | Ki [3] | IC50 [4] | IC50 [5] | IC50 [6] | IC50 [7]
